Assay results reported in patent US20160000823A1, “METHODS AND COMPOSITIONS FOR IMPROVING HEMOSTASIS” (Mast Therapeutics, Inc., priority 2014, published 2016).
“Also recorded” adds a separate entry of the source.

Key:
t-PA induced bleeding = experiment: Rat tail bleeding model with tissue plasminogen activator; type: in vivo
Description: Tissue plasminogen activator (t-PA) is used clinically to lyse occlusive thrombi. Bleeding complications that result from the unwanted lysis of hemostatic clots limits its use. TA is a synthetic derivative of the amino acid lysine that acts as a fibrinolytic inhibitor and is used clinically to antagonize unwanted bleeding. The effect oft-PA induced bleeding and its antagonism with TA was assessed in a rat tail bleeding model. Rats were anaesthetized by intraperitoneal injection of pentobarbital at 50 mg/kg. The thrombolytic agent t-PA was intravenously injected at a dose of 1 mg/kg, alone or in combination with TA at a dose of 5 mg/kg or 10 mg/kg. Another group of rats were administered 5 mg/kg TA alone. Control rats were administered saline. Each treatment group contained 7-10 rats.
Following treatment, rat tails were amputated about 4 mm from the tip and the tails were immersed in normal saline at 37° C. The bleeding time was determined as the time for complete cessation of blood flow from the amputated tail by visual inspection.
The relative ability of P188 to antagonize t-PA induced bleeding (compared to TA) was studied by evaluating P188 in the same rat tail bleeding model as described in Example 3. […]
Rat tails were amputated about 4 mm from the tip and the tails were immersed in normal saline at 37° C. and bleeding time was assessed as described in Example 3. […]

[1] = system: embolic middle cerebral artery occlusion; experiment: Embolic MCAO stroke model: lesion volume; type: in vivo, rat; details: day 7 after MCAO, H&E coronal sections
Description: (§1) tPA is an effective treatment for acute stroke. Its use is limited by a narrow treatment window (3.5-4.5 hours from onset of stroke) and a greater risk of intracerebral hemnorrhage. […] To show this, the effects of administration of tPA alone, and tPA in combination with P188 were studied in a rat model of embolic middle cerebral artery occlusion. Male Wistar rats (N=10), 3-4 months old and weighing 350-400 g were subjected to embolic middle cerebral artery occlusion (MCAO) as described by Zhang (Zhang R L et al. A rat model of focal embolic cerebral ischemia. Brain Res. 1997, 766:83-92). Following occlusion, neurologic deficit was assessed 30 minutes after MCAO using a 5 point neurological scale (Longa scale; Longa et al., (1989) Stroke 20:84-91).
(§2) To compare the two treatments, P188 in combination with tPA and tPA alone were administered according to the schedule provided in Table 2. The dose of P188 was administered in a volume of 1.0 ml infused over a period of 1 hr by intravenous (IV) infusion via a tail vein. […] At 1 and 7 days after stroke onset (MCAO), clinical neurological function was assessed using the adhesive removal test and modified neurological severity score (mNSS) (Li Y, Chen J, Wang L, Lu M, Chopp M. Treatment of stroke with intracarotid administration of marrow stromal cells. Neurology 2001, 56: 1666-1672). […]

[2] = system: embolic middle cerebral artery occlusion; experiment: Embolic MCAO stroke model: adhesive removal test; type: in vivo, rat
Description: as §1, §2

[3] = system: embolic middle cerebral artery occlusion; experiment: Embolic MCAO stroke model: modified neurological severity score (mNSS); type: in vivo, rat; details: same schedule
Description: as §1, §2

[4] = system: embolic middle cerebral artery occlusion; experiment: Embolic MCAO stroke model: gross hemorrhage; type: in vivo, rat; details: day 7 after MCAO, n=10 per group
Description: as §1
as §2, with “2.” for “2. The dose of P188 was administered in a volume of 1.0 ml infused over a period of 1 hr by intravenous (IV) infusion via a tail vein.”
The harvested brains also were assessed for the incidence of gross hemorrhage, defined as blood evident to the unaided eye on the H&E stained coronal sections. […]

| Compound | t-PA induced bleeding (t-PA induced bleeding; t-PA 1 mg/kg IV in combination with TA 5 or 10 mg/kg (FIG. 14)) | bleeding time of amputated tail (t-PA induced bleeding; t-PA alone 1 mg/kg IV, versus saline) | average lesion volume [1] | average time to tape removal ([2]; day 1 after MCAO, tPA 10 mg/kg IV at 4 hr, P188 300 mg/kg IV at 3.5 hr and 2,000 mg/kg ip at 9.5 hr) | average time to tape removal ([2]; day 7 after MCAO, same schedule) | average mNSS score ([3]; 1 day after MCAO) | average mNSS score ([3]; 7 days after MCAO) | animals exhibiting gross hemorrhage [4] [%] |
| --- | --- | --- | --- | --- | --- | --- | --- | --- |
| NC[C@H]1CC[C@H](C(=O)O)CC1 [TA, tranexamic acid, reference compound] | dose dependent reduction |  |  |  |  |  |  |  |
| tissue plasminogen activator [t-PA] |  | marked prolongation of bleeding time; also recorded: increased bleeding time | approximately 35 % of contralateral hemisphere | approximately 120 seconds | approximately 100 seconds | approximately 10.5 | approximately 8.5 | 30 |
